Experimental data: patent US20180207111A1, “IMMUNOTHERAPY FOR CASR-EXPRESSING CANCER (E.G. NEUROBLASTOMA)” (HOSPITAL SANT JOAN DE DEU, priority 2015, published 2018)

What was measured:
[1] = test system: SK-N-LP CaSR/GFP; experiment: RT-qPCR mRNA expression in SK-N-LP CaSR/GFP neuroblastoma cells grown with Cinacalcet; assay type: cell-based, Homo sapiens; settings: 1 μM Cinacalcet vs DMSO, up to 21 days
Method: (§1) Three neuroblastoma cell lines LA-N-1, SK-N-LP and SH-SY5Y were used for this purpose. […] No expression of the CaSR is detectable in SH-SY5Y either. Thus, SK-N-LP and SH-SY5Y were stably transfected with pCMV-CaSR-GFP or pCMV-GFP. All cell lines were grown in the presence of 1 μM Cinacalcet (Selleck Chemicals, S1260) or DMSO for 21 days in P100 plates. Morphology was assessed daily. Total RNA was isolated at days 1, 3, 5, 7, 10, 14 and 21. Several markers were analyzed by RT-qPCR using SYBRgreen and specific primers or Taqman technology and gene-specific Assays-on-Demand (Applied Biosystems) (Table 1).
(§2) These features reached maximal expression between days 7 and 14 (FIG. 1). […] Neuroblastoma cytodifferentiation is an indication of this tumor becoming more benign, less proliferative. […] Moreover, upregulation of these differentiation-associated genes and CTAs both in vitro and in vivo (see Examples 2-4) validates the proposed in vitro model (doses used, time of exposure, etc) as a good model to evaluate neuroblastoma response to treatment with Cinacalcet.

[2] = test system: normal surrounding tissues; experiment: Genome-wide expression analysis of murine genes in xenograft RNAs, Affymetrix Mouse Gene Array 2.1 ST; assay type: in vivo
Method: Genome-wide expression analyses were performed using Affymetrix Human and Mouse Gene Array 2.1 ST (Affymetrix, reference number 902136 for human gene array and 902120 for mouse gene array) as per manufacturer's protocol. Procedures to analyze results included: Quality control of the arrays (following this step, xenograft C6 was removed from further analyses); filtering and normalization; selection of differentially expressed genes; single comparison (treated versus control samples); list of differentially expressed genes ranked by significance; Volcano plots showing the most differentially expressed genes; heatmaps of the clustered expression profiles; and analysis of biological significance through enrichment analysis against the Gene Ontologies, KEGG (Kyoto Encyclopedia of Genes and Genomes) and Ingenuity pathways.
In order to evaluate whether upregulation of CTAs was a tumor-specific effect or it was induced in normal surrounding tissues as well, a genome-wide expression analysis by means of microarrays was conducted using a chip to detect murine genes differentially expressed in the same RNAs analyzed in the human array.

[3] = test system: LA-N-1 cells subcutaneous xenograft; experiment: In vivo neuroblastoma model: tumor growth / event-free survival; parameters: species or system mice; settings: 10 mg/kg/day oral gavage 6 days per week vs vehicle; log-rank P=0.034; FIG. 2A
Method: An in vivo model of neuroblastoma was generated in four to six-week-old female athymic Nude-Foxn1 nu/nu mice (Charles Rivers), wherein LA-N-1 cells (10^7) were subcutaneously inoculated. Tumors were allowed to grow until dimensions reached 7×7 mm. Then mice were randomized to receive either vehicle (described below) or Cinacalcet (10 mg/kg/day) by oral gavage 6 days per week until tumor volume reached 2 cm^3. Cinacalcet was prepared with Mimpara® tablets (Amgen). Following homogenization of the Mimpara® tablets in a mortar, the resulting powder was reconstituted with 0.5% Tween 20 (20%, v/v) and carboxymethylcellulose (0.25%, w/v) to a final concentration of […]. Each dose contained 5 μL of this mixture per gram of mouse weight. Dimensions of tumors were measured thrice a week using a digital caliper. Tumor volume was calculated as L×W^2/2 in which “L” indicates length in mm and “W” indicates width in mm. At the end of the experiment (each mouse was sacrificed when the corresponding xenograft reached the final pre-determined volume 2 cm^3), tumors were excised and half of each specimen was frozen in liquid nitrogen for molecular analyses and the other was fixed in 10% formalin. For event-free survival (EFS) analysis, an event was defined as tumor size that exceeded 2 cm^3. The log-rank statistic was used to compare the EFS probabilities between groups. […]

[4] = test system: LA-N-1 cells; experiment: Morphological assessment of neuroblastoma cells exposed to Cinacalcet; assay type: cell-based, Homo sapiens; settings: 1 μM Cinacalcet vs DMSO; day 3
Method: FIG. 1 is a micrograph showing the morphological assessment of LA-N-1 cells exposed to 1 μM Cinacalcet (C) or DMSO (vehicle (V)) for 3 days (3d) and 14 days (14d).
as §1, §2

[5] = Plasmatic ionic Ca2+ and tolerability in xenograft-bearing mice; assay type: in vivo
Source text: FIG. 2 comprises graphs showing (A) Effect of Cinacalcet treatment on survival (%) in an in vivo neuroblastoma model treated with Cinacalcet (triangle) or vehicle (circle) over time (days); (B) Plasmatic ionic Ca^2+ concentrations (mmol/L) in mice receiving Cinacalcet (triangle) or vehicle (circle) over time (weeks).
An in vivo model of neuroblastoma was generated in four to six-week-old female athymic Nude-Foxn1 nu/nu mice (Charles Rivers), wherein LA-N-1 cells (10^7) were subcutaneously inoculated. Tumors were allowed to grow until dimensions reached 7×7 mm. Then mice were randomized to receive either vehicle (described below) or Cinacalcet (10 mg/kg/day) by oral gavage 6 days per week until tumor volume reached 2 cm^3. Cinacalcet was prepared with Mimpara® tablets (Amgen). […] Dimensions of tumors were measured thrice a week using a digital caliper. Tumor volume was calculated as L×W^2/2 in which “L” indicates length in mm and “W” indicates width in mm. At the end of the experiment (each mouse was sacrificed when the corresponding xenograft reached the final pre-determined volume 2 cm^3), tumors were excised and half of each specimen was frozen in liquid nitrogen for molecular analyses and the other was fixed in 10% formalin. […]

[6] = test system: LA-N-1; experiment: RT-qPCR mRNA expression in LA-N-1 neuroblastoma cells grown with Cinacalcet; assay type: cell-based, Homo sapiens; settings: 1 μM Cinacalcet vs DMSO, up to 21 days
Method: as §1, §2

[7] = test system: SH-SY5Y CaSR/GFP; experiment: RT-qPCR mRNA expression in SH-SY5Y CaSR/GFP neuroblastoma cells grown with Cinacalcet; assay type: cell-based, Homo sapiens; settings: 1 μM Cinacalcet vs DMSO, up to 21 days
Method: as §1, §2

[8] = Mus musculus genes in xenograft RNAs, Cinacalcet vs vehicle, adjusted P 0.80678117

C[C@@H](NCCCc1cccc(C(F)(F)F)c1)c1cccc2ccccc12 [Cinacalcet]
CTCFL mRNA fold increase [1]: no expression | MAGEA2 mRNA fold increase [1]: 36.6 fold | MAGEA3 mRNA fold increase [1]: 155.4 fold | NFL mRNA fold increase [1]: 7.2 fold | NTRK1 mRNA fold increase [1]: 3.6 fold | NTRK3 mRNA fold increase [1]: 2.6 fold | S100-β mRNA fold increase [1]: 72.3 fold | SSX4/4B mRNA fold increase [1]: 69 fold | TUBB3 mRNA fold increase [1]: 2.8 fold | GAGE-P1 mRNA fold increase ([1]; primer pair GAGE P1): 4.1 fold | GAGE-P2 mRNA fold increase ([1]; primer pair GAGE P2): 5.7 fold | GAGE-P3 mRNA fold increase ([1]; primer pair GAGE P3): 6.3 fold | Log fold change, murine probe 17395227 (Gm14399) ([2]; Mus musculus genes in xenograft RNAs, Cinacalcet vs vehicle, adjusted P 0.60678117): 1.067 | Log fold change, murine probe 17262250 (Tgtp2//Tgtp1) ([2]; Mus musculus genes in xenograft RNAs, Cinacalcet vs vehicle, adjusted P 0.80676117): 1.108 | Log fold change, murine probe 17302054 (Snora31) [2, 8]: 1.105 | Log fold change, murine probe 17352957 (Dsc1) [2, 8]: 1.033 | Log fold change, murine probe 17380529 (Gm14419//Gm14391//Gm6710) [2, 8]: 1.033 | Log fold change, murine probe 17386477 (Gm11084) [2, 8]: 1.567 | Log fold change, murine probe 17458439 (Gpnmb) [2, 8]: 1.221 | Log fold change, murine probe 17483098 (Gdpd3) [2, 8]: 1.309 | Log fold change, murine probe 17503825 (Mmp2) [2, 8]: 1.046 | Log fold change, murine probe 17546762 (LOC101055644//Mid1//MID1) [2, 8]: 1.088 | Log fold change, murine probe 17546774 (Erdr1//Dock9) [2, 8]: 1.341 | Upregulation of CTAs in normal surrounding (murine) tissues ([2]; murine microarray, also when C9-C11 analyzed, no gene significant (adjusted P-value >0.05)): CTAs were not amongst the over-expressed genes | Tumor growth (event-free survival, event = tumor size > 2 cm^3) [3]: significant tumor growth inhibition | Morphological features of neuronal differentiation [4]: extensive neurite outgrowth | Plasmatic ionic Ca2+ concentration ([5]; mice, 10 mg/kg/day oral gavage, FIG. 2B): Mild, non-symptomatic, hypocalcemia | Signs of toxicity ([5]; mouse, in vivo, po, 10 mg/kg/day): No signs of toxicity were observed | CTCFL mRNA fold increase [6]: 1.2 fold | MAGEA2 mRNA fold increase [6]: 2.9 fold | MAGEA3 mRNA fold increase [6]: 1.4 fold | NFL mRNA fold increase [6]: ns | NTRK1 mRNA fold increase [6]: 3.2 fold | NTRK3 mRNA fold increase [6]: 2.4 fold | S100-β mRNA fold increase [6]: 6.9 fold | SSX4/4B mRNA fold increase [6]: 3.8 fold | TUBB3 mRNA fold increase [6]: ns | GAGE-P1 mRNA fold increase ([6]; primer pair GAGE P1): 2.7 fold | GAGE-P2 mRNA fold increase ([6]; primer pair GAGE P2): 7.6 fold | GAGE-P3 mRNA fold increase ([6]; primer pair GAGE P3): 5.1 fold | CTCFL mRNA fold increase [7]: no expression | MAGEA2 mRNA fold increase [7]: 2.4 fold | MAGEA3 mRNA fold increase [7]: 14.6 fold | NFL mRNA fold increase [7]: 2.3 fold | NTRK1 mRNA fold increase [7]: 2.9 fold | NTRK3 mRNA fold increase [7]: 4.7 fold | S100-β mRNA fold increase [7]: 2.2 fold | SSX4/4B mRNA fold increase [7]: 3.45 fold | TUBB3 mRNA fold increase [7]: 1.7 fold | GAGE-P1 mRNA fold increase ([7]; primer pair GAGE P1): 1.4 fold | GAGE-P2 mRNA fold increase ([7]; primer pair GAGE P2): 7.9 fold | GAGE-P3 mRNA fold increase ([7]; primer pair GAGE P3): 2.5 fold
